The structures appear in SMILES notation. Square brackets hold non-standard residues; d marks the D form. Peptide text beside a SMILES is read from it. * marks the point of attachment. Octanoyl = CCCCCCCC(=O)*; Ava = NCCCCC(=O)O; Octyl = CCCCCCCC*

T1 sequence (O08725 whole entry): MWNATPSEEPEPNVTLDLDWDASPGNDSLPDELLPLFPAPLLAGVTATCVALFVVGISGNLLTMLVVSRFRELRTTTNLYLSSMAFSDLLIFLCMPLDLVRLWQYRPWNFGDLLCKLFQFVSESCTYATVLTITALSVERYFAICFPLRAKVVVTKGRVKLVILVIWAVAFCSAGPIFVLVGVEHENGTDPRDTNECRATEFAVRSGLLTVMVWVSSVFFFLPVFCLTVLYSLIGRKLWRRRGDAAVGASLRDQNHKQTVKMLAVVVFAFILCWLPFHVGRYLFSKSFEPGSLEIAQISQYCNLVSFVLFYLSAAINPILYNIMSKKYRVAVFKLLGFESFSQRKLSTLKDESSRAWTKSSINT

One assay addresses T1, rat GHS-receptor (GHR-R) (Rattus norvegicus, UniProt O08725).
T1 construct: A full-length cDNA for rat GHR-R was obtained by RT-PCR; expressed in transfected cells
Briefly: Ca-releasing activity (increase in intracellular calcium) in CHO-GHSR62 cells, FLIPR. The assay is classed as cell-based.
Details: not given
An excerpt: To assay an increase in the intracellular calcium ion concentration (Ca-releasing activity) occurring upon binding of a GH secretagogue (GHS) to GHS-receptor (GHR-R), a cell strain expressing rat GHR-R was created in the following manner. A full-length cDNA for rat GHR-R was obtained by RT-PCR (reverse transcriptase-polymerase chain reaction) where a cDNA derived from rat brain was used as template. From the nucleotide sequence of known rat GHR-R [K. K. Mckee, et al, Molecular Endocrinology 11, 415-423 (1997)], sense and antisense primers consisting of the following nucleotide sequences were synthesized.
The amplified cDNA was ligated to vector pcDNAIII (Invitrogen) to construct expression vector GHSR-pcDNAIII. CHO cells were transformed via the expression vector, and the transformed cells stably expressing GHR-R were selected in a medium containing 1 μg/ml G418. […] A change in the intracellular calcium ion concentration (Ca-releasing activity) was measured by an FLIPR system (Molecular Device). Before this measurement, 4×10^4 CHO-GHSR62 cells were put to a 96-well microplate with black wall (Corning Co., Ltd) and cultured for 12 to 15 hours. Then, the cells were incubated with 4 μM fluorescent Fluo4 (Molecular Probe Co., Ltd) for 1 hour and washed four times with Hank's BSS (Hank's Balanced Salt Solution) containing 20 mM Hepes ([N-2-hydroxyethyl]-piperazine-N-[2-ethanesulfonic acid]) and 2.5 mM probenecid, and the Ca-releasing activity was assayed by adding a sample and measuring a change in the fluorescence.
Peptide fragments obtained by partially digested the rat- and human-derived ghrelins by various proteases, or chemically synthesized peptides, were examined for their Ca releasing activity in order to determine a core amino acid sequence and the optimum chain length of a modifying fatty acid necessary for Ca-releasing activity.
The Ca-increasing activities of the ghrelin derivative peptide-type compounds synthesized in Example 10 and the natural ghrelin peptide were measured in the same manner as in Example 1.
In this examination, the intracellular Ca-releasing activity in CHO cells expressing rat GSH receptor was used as the indicator.
Background: Calcium flux is commonly read through the fluorescence of an indicator in the cells.
For the compound `CCCCCCCC(=O)OC[C@H](NC(=O)[C@H](CO)NC(=O)CN)C(=O)N[C@@H](Cc1ccccc1)C(=O)N[C@@H](CC(C)C)C(N)=O` [Compound 32, Ghrelin (1-5)-amide] (H-GSS(Octanoyl)FL-NH2), the “Ca-releasing activity relative to ghrelin(1-4) amide” value is given as “about 26 times”.

The same assay, now with this note: CHO-GHSR62 cells.
As for `CCCCCCCC(=O)O` [n-octanoic acid, reference compound], the “Ca-releasing activity (in words)” value is listed as “did not show a significant Ca-releasing activity”.

The same assay, now with this note: CHO-GHSR62 cells (CHO cells expressing rat GHS receptor), FLIPR; read-out: Ca-releasing activity EC50.
By EC50 is commonly meant the midpoint of the concentration-response curve. Turning to `CCCCCCCC(=O)OC[C@H](NC(=O)[C@H](CO)NC(=O)CN)C(=O)N[C@@H](Cc1ccccc1)C(=O)N[C@@H](CC(C)C)C(=O)N[C@@H](CO)C(=O)N1CCC[C@H]1C(=O)N[C@@H](CCCNC(=N)N)C(N)=O` [Compound 36, [Arg^8]-Ghrelin (1-8)-amide] (H-GSS(Octanoyl)FLSPR-NH2), the EC50 was found to be 1.1 nM.

Turning to `CCCCCCCC(=O)O[C@H](C)[C@H](NC(=O)[C@H](CO)NC(=O)CN)C(=O)N[C@@H](Cc1ccccc1)C(=O)N[C@@H](CC(C)C)C(=O)N[C@@H](CO)C(=O)N1CCC[C@H]1C(=O)N[C@@H](CCC(=O)O)C(=O)N[C@@H](Cc1c[nH]cn1)C(=O)N[C@@H](CCC(N)=O)C(=O)N[C@@H](CCCNC(=N)N)C(=O)N[C@H](C(=O)N[C@@H](CCC(N)=O)C(=O)N[C@@H](CCC(N)=O)C(=O)N[C@@H](CCCNC(=N)N)C(=O)N[C@@H](CCCCN)C(=O)N[C@@H](CCC(=O)O)C(=O)N[C@@H](CO)C(=O)N[C@@H](CCCCN)C(=O)N[C@@H](CCCCN)C(=O)N1CCC[C@H]1C(=O)N1CCC[C@H]1C(=O)N[C@@H](C)C(=O)N[C@@H](CCCCN)C(=O)N[C@@H](CC(C)C)C(=O)N[C@@H](CCC(N)=O)C(=O)N1CCC[C@H]1C(=O)N[C@@H](CCCNC(=N)N)C(=O)O)C(C)C` [Compound 59, [Thr^3(Octanoyl)]-hGhrelin], the half-maximal effective concentration (EC50) turned out to be 10 nM.

For the compound `CCCCCCCC(=O)OC[C@H](NC(=O)CCCCN)C(=O)N[C@@H](Cc1ccccc1)C(=O)N[C@@H](CC(C)C)C(=O)N[C@@H](CO)C(=O)N1CCC[C@H]1C(N)=O` [Compound 40, [N-Aminopentanoyl]-Ghrelin (3-7)-amide] (H-[Ava]S(Octanoyl)FLSP-NH2), the 50% effective concentration (EC50) was 3.4 nM.

Regarding `CC(C)C[C@H](NC(=O)[C@H](CCCCN)NC(=O)[C@H](C)NC(=O)[C@@H]1CCCN1C(=O)[C@@H]1CCCN1C(=O)[C@H](CCCCN)NC(=O)[C@H](CCCCN)NC(=O)[C@H](CO)NC(=O)[C@H](CCC(=O)O)NC(=O)[C@@H](N)CCCCN)C(=O)N[C@@H](CCC(N)=O)C(=O)N1CCC[C@H]1C(=O)N[C@@H](CCCNC(=N)N)C(=O)O` [Compound 19, Ghrelin (16-28)], the EC50 is over 10000 nM.

Take `CCCCCCCCOC[C@H](NC(=O)CCCCN)C(=O)N[C@@H](Cc1ccccc1)C(=O)N[C@@H](CC(C)C)C(=O)NCCN` [Compound 85, [N-Aminopentanoyl, Ser^3(Octyl)]-Ghrelin (3-5), aminoethylamide]: the half-maximal effective concentration (EC50) was found to be 3.5 nM.

Regarding `CCCCCCCC(=O)OC[C@H](NC(=O)[C@H](CO)NC(=O)CN)C(=O)N[C@@H](Cc1ccccc1)C(=O)N[C@@H](CC(C)C)C(=O)N[C@@H](CO)C(=O)N1CCC[C@H]1C(=O)N[C@@H](CCCCN)C(N)=O` [Compound 35, [Lys^8]-Ghrelin (1-8)-amide] (H-GSS(Octanoyl)FLSPK-NH2), the EC50 worked out at 1.1 nM.

Consider `CCCCCCCC(=O)OC[C@H](NC(=O)[C@H](CCCCN)NC(=O)CN)C(=O)N[C@@H](Cc1ccccc1)C(=O)N[C@@H](CC(C)C)C(=O)N[C@@H](CO)C(=O)N1CCC[C@H]1C(N)=O` [Compound 46, [Lys^2]-Ghrelin (1-7)-amide] (H-GKS(Octanoyl)FLSP-NH2), for which the EC50 was 24 nM.

Turning to `CCCCCCCC(=O)OC[C@H](NC(=O)CN)C(=O)N[C@@H](Cc1ccccc1)C(=O)N[C@@H](CC(C)C)C(=O)N[C@@H](CO)C(=O)N1CCC[C@H]1C(N)=O` [Compound 43, [N-Glycyl]-Ghrelin (3-7)-amide] (H-GS(Octanoyl)FLSP-NH2), the EC50 was determined as 380 nM.

In the case of `CCCCCCCC(=O)OC[C@H](NC(=O)[C@H](CO)NC(=O)CN)C(=O)N[C@@H](Cc1ccccc1)C(=O)N[C@@H](CC(C)C)C(=O)N[C@@H](CO)C(=O)N1CCC[C@H]1C(=O)N[C@@H](CCC(=O)O)C(=O)N[C@@H](Cc1c[nH]cn1)C(=O)N[C@@H](CCC(N)=O)C(=O)N[C@@H](CCCNC(=N)N)C(=O)N[C@H](C(=O)N[C@@H](CCC(N)=O)C(=O)N[C@@H](CCC(N)=O)C(=O)N[C@@H](CCCNC(=N)N)C(=O)O)C(C)C` [Compound 20, hGhrelin (1-15)], the EC50 worked out at 7 nM.

`CCCCCCCC(=O)OC[C@H](NC(=O)[C@H](CO)NC(=O)CN)C(=O)N[C@@H](Cc1ccccc1)C(=O)N[C@@H](CC(C)C)C(N)=O` [Compound 32, Ghrelin (1-5)-amide] (H-GSS(Octanoyl)FL-NH2): the concentration for a half-maximal effect (EC50) is 6.2 nM.

In the case of `CCCCCCCCOC[C@@H](NC(=O)[C@H](CO)NC(=O)CN)C(=O)N[C@H](Cc1ccccc1)C(=O)N[C@@H](CC(C)C)C(=O)N[C@@H](CO)C(=O)N1CCC[C@H]1C(N)=O` [Compound 53, [^DSer^3(Octyl), ^DPhe^4]-Ghrelin (1-7)-amide], the EC50 was over 10000 nM.

With `CCCCCCCCSC[C@H](NC(=O)[C@H](CO)NC(=O)CN)C(=O)N[C@H](Cc1ccccc1)C(=O)N[C@@H](CC(C)C)C(=O)N[C@@H](CO)C(=O)N1CCC[C@H]1C(N)=O` [Compound 49, [Cys^3(Octyl), ^DPhe^4]Ghrelin (1-7)-amide] (H-GSC(Octyl)[dF]LSP-NH2), the EC50 amounted to 3000 nM.

Turning to `CCCCCCCCOC[C@H](NC(=O)CCCCN)C(=O)N[C@@H](Cc1ccccc1)C(=O)N[C@@H](CC(C)C)C(=O)NCC` [Compound 83, [N-Aminopentanoyl, Ser^3(Octyl)]-Ghrelin (3-5)-ethylamide], the half-maximal effective concentration (EC50) came to 22 nM.

`CCCCCCCC(=O)OC[C@H](NC(=O)[C@H](CO)NC(=O)CN)C(=O)N[C@@H](Cc1ccccc1)C(=O)N[C@@H](CC(C)C)C(=O)N[C@@H](CO)C(=O)N1CCC[C@H]1C(=O)N[C@@H](CCC(=O)O)C(N)=O` [Compound 28, Ghrelin (1-8)-amide]: the EC50 worked out at 13 nM.

On to `CCCC(=O)OC[C@H](NC(=O)[C@H](CO)NC(=O)CN)C(=O)N[C@@H](Cc1ccccc1)C(=O)N[C@@H](CC(C)C)C(=O)N[C@@H](CO)C(=O)N1CCC[C@H]1C(=O)N[C@@H](CCC(=O)O)C(=O)N[C@@H](Cc1c[nH]cn1)C(=O)N[C@@H](CCC(N)=O)C(=O)N[C@@H](CCCCN)C(=O)N[C@@H](C)C(=O)N[C@@H](CCC(N)=O)C(=O)N[C@@H](CCC(N)=O)C(=O)N[C@@H](CCCNC(=N)N)C(=O)N[C@@H](CCCCN)C(=O)N[C@@H](CCC(=O)O)C(=O)N[C@@H](CO)C(=O)N[C@@H](CCCCN)C(=O)N[C@@H](CCCCN)C(=O)N1CCC[C@H]1C(=O)N1CCC[C@H]1C(=O)N[C@@H](C)C(=O)N[C@@H](CCCCN)C(=O)N[C@@H](CC(C)C)C(=O)N[C@@H](CCC(N)=O)C(=O)N1CCC[C@H]1C(=O)N[C@@H](CCCNC(=N)N)C(=O)O` [Compound 10, [Ser^3(Butyryl)]-rGhrelin], for which the concentration for a half-maximal effect (EC50) is 280 nM.

In the case of `CC(C)CCC(=O)OC[C@H](NC(=O)[C@H](CO)NC(=O)CN)C(=O)N[C@@H](Cc1ccccc1)C(=O)N[C@@H](CC(C)C)C(=O)N[C@@H](CO)C(=O)N1CCC[C@H]1C(=O)N[C@@H](CCC(=O)O)C(=O)N[C@@H](Cc1c[nH]cn1)C(=O)N[C@@H](CCC(N)=O)C(=O)N[C@@H](CCCNC(=N)N)C(=O)N[C@H](C(=O)N[C@@H](CCC(N)=O)C(=O)N[C@@H](CCC(N)=O)C(=O)N[C@@H](CCCNC(=N)N)C(=O)N[C@@H](CCCCN)C(=O)N[C@@H](CCC(=O)O)C(=O)N[C@@H](CO)C(=O)N[C@@H](CCCCN)C(=O)N[C@@H](CCCCN)C(=O)N1CCC[C@H]1C(=O)N1CCC[C@H]1C(=O)N[C@@H](C)C(=O)N[C@@H](CCCCN)C(=O)N[C@@H](CC(C)C)C(=O)N[C@@H](CCC(N)=O)C(=O)N1CCC[C@H]1C(=O)N[C@@H](CCCNC(=N)N)C(=O)O)C(C)C` [Compound 69, [Ser^3(4-Methylpentanoyl)]-hGhrelin], the EC50 came out at 4.4 nM.

Staying with this assay, now noted: Table 3, Example 9: protease fragments or synthetic peptides; CHO-GHSR62 cells; read-out: Ca-releasing activity (EC50).
In the case of `CC(C)C[C@H](NC(=O)[C@H](CCCCN)NC(=O)[C@H](C)NC(=O)[C@@H]1CCCN1C(=O)[C@@H]1CCCN1C(=O)[C@H](CCCCN)NC(=O)[C@H](CCCCN)NC(=O)[C@H](CO)NC(=O)[C@H](CCC(=O)O)NC(=O)[C@@H](N)CCCCN)C(=O)N[C@@H](CCC(N)=O)C(=O)N1CCC[C@H]1C(=O)N[C@@H](CCCNC(=N)N)C(=O)O` [Compound 19, Ghrelin (16-28)], the EC50 was over 10000 nM.

With `CCCCCCCC(=O)OC[C@H](NC(=O)[C@H](CO)NC(=O)CN)C(=O)N[C@@H](Cc1ccccc1)C(=O)N[C@@H](CC(C)C)C(=O)N[C@@H](CO)C(=O)N1CCC[C@H]1C(=O)N[C@@H](CCC(=O)O)C(=O)N[C@@H](Cc1c[nH]cn1)C(=O)N[C@@H](CCC(N)=O)C(=O)N[C@@H](CCCCN)C(=O)O` [Compound 24, rGbrelin (1-11)], the half-maximal effective concentration (EC50) is 15 nM.

In the case of `CCCCCCCC(=O)OC[C@H](NC(=O)[C@H](CO)NC(=O)CN)C(=O)N[C@@H](Cc1ccccc1)C(=O)N[C@@H](CC(C)C)C(=O)N[C@@H](CO)C(=O)N1CCC[C@H]1C(=O)N[C@@H](CCC(=O)O)C(=O)O` [Compound 27, Ghrelin (1-8)], the concentration for a half-maximal effect (EC50) amounted to 100 nM.

The values above are taken from patent publication US7385026B1, “Modified ghrelin polypeptides” (priority 1999, dated 2008).
